T1: COI1 (Coronatine Insensitive 1) (Arabidopsis, UniProt O04197 1-592, limits assumed)
T1 construct: Expressed in Arabidopsis seedlings in the FAST assay; construct not described
T1 sequence (looked up): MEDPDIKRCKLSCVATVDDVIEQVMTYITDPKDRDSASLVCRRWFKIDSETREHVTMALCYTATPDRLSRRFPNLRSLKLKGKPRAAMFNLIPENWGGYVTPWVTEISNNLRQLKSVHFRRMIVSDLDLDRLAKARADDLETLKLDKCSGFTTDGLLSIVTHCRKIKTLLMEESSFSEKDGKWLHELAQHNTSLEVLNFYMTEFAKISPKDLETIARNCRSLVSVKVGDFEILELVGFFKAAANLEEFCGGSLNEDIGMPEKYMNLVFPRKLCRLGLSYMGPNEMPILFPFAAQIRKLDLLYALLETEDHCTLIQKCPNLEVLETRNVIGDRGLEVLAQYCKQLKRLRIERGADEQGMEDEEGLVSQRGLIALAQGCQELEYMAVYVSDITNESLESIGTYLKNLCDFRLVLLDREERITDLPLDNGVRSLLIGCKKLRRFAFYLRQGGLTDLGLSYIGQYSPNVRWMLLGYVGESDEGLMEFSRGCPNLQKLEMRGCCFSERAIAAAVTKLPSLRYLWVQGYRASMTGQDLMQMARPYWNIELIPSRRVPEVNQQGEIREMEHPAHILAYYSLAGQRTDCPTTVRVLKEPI


Experiments:
[1] = tested on: AtNHR1B; experiment: qRT-PCR of AtNHR1B expression in treated wild-type Col-0 plants; assay type: in vivo, Arabidopsis; conditions: Col-0, 12 hpt; ABA 10 μM, Flg22 20 μM
Experimental: (§1) Total RNA was purified from Arabidopsis leaves infiltrated with water (mock control), nonhost pathogen P. syringae pv. tabaci (Psta), or host pathogen P. syringae pv. maculicola (Psm). Total RNA was extracted using TRIzol (Invitrogen, NT) and 2 treated or inoculated leaves were pooled to represent one biological replicate. Total RNA was treated with DNase I (Invitrogen, NY), and 1 μg RNA was used to generate cDNA using Superscript III reverse transcriptase (Invitrogen, NY) and oligo d(T)15-20 primers. The cDNA (1:20) was then used for qRT-PCR using Power SYBR Green PCR master mix (Applied Biosystems, Foster City, Calif., USA) with an ABI Prism 7900 HT sequence detection system (Applied Biosystems). Primers specific for AtUBQ5 were used to normalize small differences in template amounts. Average Cycle Threshold (CT) values calculated using Sequence Detection Systems (version 2.2.2; Applied Biosystems) from duplicate samples were used to determine the fold expression relative to controls.
(§2) The gene expression patterns of AtNHR1A and AtNHR1B were determined by quantitative RT-PCR (qRT-PCR) after treating wild-type Col-0 plants with ABA, PAMPs (Flg22 and LPS), host (P. syringae pv. maculicola) and nonhost (P. syringae pv. tabaci) bacterial pathogens. […]

[2] = tested on: AtNHR1A; conditions: 4 hrs of 100 μM ABA, cited from earlier work
[3] = tested on: stomata of Arabidopsis epidermal peels; experiment: Stomatal closure / aperture in epidermal peels of NHR1A lines; assay type: cell-based; conditions: ABA 50 μM, flg22 20 μM
Experimental: FIG. 6A, FIG. 6B and FIG. 6C show ABA, PAMPs, host and nonhost bacterial pathogens induce AtNHR1A, AtNHR1B, and stomatal closure in an AtNHR1A-dependent manner. Histograms are depicted of AtNHR1A (FIG. 6A) and AtNHR1B (FIG. 6B) gene expression in Arabidopsis wild-type (Col-0) plants individually syringe-infiltrated with ABA (10 μM), Flg22 (20 μM), or LPS (100 ng), or flood-inoculated with the pathogens P. syringae pv. maculicola (Psm) and P. syringae pv. tabaci (Pst) at 1×10^4 cfu/mL. Bars indicate relative gene expression in comparison with the housekeeping gene UBQ5 and in relation to the 0 hr time-point. Different letters above bars indicate a statistically significant difference within a treatment (Student's t-test; p-value=0.05). Error bars represent the standard deviation of three biological replicates (three technical replicates for each biological replicate). Histograms are depicted quantifying stomatal aperture size from epidermal peels incubated with ABA (10 μM or 50 μM), Flg22 (20 μM), LPS (100 ng) and the nonhost pathogen Pst (1×10^6 cfu/mL), where aperture size was measured after 30 min for ABA, 1 hr for flg22 and 3 hrs for Pst (FIG. 6C). […]

[4] = tested on: AtNHR1A; experiment: qRT-PCR of AtNHR1A expression in treated wild-type Col-0 plants; assay type: in vivo, Arabidopsis; conditions: Col-0, syringe-infiltrated ABA 10 μM, 6 hpt, relative to 0 hr
Experimental: as §1, §2

[5] = tested on: stomata of Arabidopsis epidermal peels; experiment: Stomatal aperture in epidermal peels of Col-0 and AtGCN4 overexpressor lines; assay type: cell-based; conditions: both wild-type Col-0 and AtGCN4 overexpressor lines, after ABA treatment
Experimental: A representative histogram is depicted of stomatal aperture in Arabidopsis plant epidermal peels from wild-type Col-0 and GCN4-overexpressing (AtGCN4-OE6 and AtGCN4-OE16) lines measured 4 hours after treatment with MES buffer, COR, ABA, or COR+ABA.
Upon detection of PAMPs, stomata rapidly closes to prevent entry of the pathogen into apoplast (Melotto et al., 2006; Lee et al., 2013). […] Epidermal peels of AtGCN4 overexpressing lines were used to investigate whether stomata reopen after treatment with MES buffer (stomata opening buffer; control) or the host pathogen P. syringae pv. tomato DC3000. In wild-type Col-0, stomata reopened 3 hpi, while in the AtGCN4 overexpressor lines (AtGCN4-OE6 and AtGCN4-OE16), stomata remained closed even 4 hpi with P. syringae pv. tomato DC3000. Stomatal aperture was measured after ABA and coronatine treatments in order to investigate stomatal function in AtGCN4 overexpressor lines. ABA treatment induces stomatal closure in plants. After ABA treatment, the stomatal aperture size was reduced due to closing in both wild-type Col-0 and the AtGCN4 overexpressor lines.

[6] = tested on: AtNHR1B; conditions: both mesophyll cells and guard cells, 4 hrs of 100 μM ABA; cited from earlier work
[7] = molecular target: T1, COI1 (Coronatine Insensitive 1); experiment: FAST (fast agro-mediated seedling transformation) assay in Arabidopsis Col-0 and nhr1a seedlings
Description: Several JAZ proteins, such as JAZ1, JAZ2, JAZ3, JAZ6, JAZ9 and JAZ10, have been known to directly interact with COI1 in Arabidopsis (Chini et al., 2009; Melotto et al., 2008; Thines et al., 2007; Yan et al., 2009; Zhou et al., 2013). As shown above, NHR1A directly interacts with JAZ1, JAZ3, JAZ4, JAZ5, JAZ9 and JAZ12. Without being limited by theory, the present inventors hypothesize that the function of JAZ9 can be modified by binding NHR1A, and this may affect COI1-mediated signaling for stomatal closure. The fast agro-mediated seedling transformation (FAST) assay was used in Col-0 and nhr1a to investigate whether NHR1A was required for JAZ9-COI1 interaction.

[8] = tested on: AtNHR1A; experiment: GTPase activity of AtNHR1A (GTP hydrolysis, phosphate release); assay type: biochemical, Arabidopsis
Experimental: FIG. 12A, FIG. 12B and FIG. 12C show NHR1A has GTPase activity and interacts with JAZ9 in Arabidopsis. A representative histogram is depicted showing that nhr1a is less sensitive to JA than Col-0, where roots were measured 7 days after seeds of different Arabidopsis lines were grown in MS medium plates with or without 30 μM of MeJA (FIG. 12A). Data represents three independent experiments with at least 10 seedlings per line. Bars represent the mean±SD. Asterisks indicate statistical significance (Student's t-test; p-value <0.05). A representative scatter-plot and histogram are depicted showing that the GTPase activity of NHR1A is reduced by JAZ9 as measured by the rate of phosphate (Pi) release when NHR1A protein (1 μM) was pre-loaded with GTP (1 mM) and incubated without (FIG. 12B) or with 0.25-1 μM of JAZ9 (FIG. 12C). Data represents three independent experiments. Bars represent the mean±SE.
To further examine the role of AtNHR1A, GTPase activity of AtNHR1A was assessed using purified protein in a fluorescence-based assay (Willard et al., 2005). […] This finding was quantified by measuring the phosphate (Pi) release, using the ENZchek® phosphate assay kit (Invitrogen®), after incubating NHR1A with different concentrations of JAZ9. […]
GTP binding and hydrolysis by AtNHR1A protein was measured using GTP-BODIPY-FL in real-time fluorescence assays in the presence of absence of JAZ9 protein. […]

Row | Molecule | AtNHR1B expression [1] | AtNHR1A transcripts vs water-treated control ([2]; Col-0 guard cells) | AtNHR1A transcript level vs water-treated control ([2]; Col-0 mesophyll cells) | Stomatal response ([3]; Atnhr1a mutant) | Stomatal response ([3]; Col-0, NHR1A-OE and AtNHR1A-comp lines) | AtNHR1A induction [4] | Stomatal aperture size [5] | AtNHR1B transcripts vs water treatment [6] | binding result [7] | Reduction in phosphate release compared with AtNHR1A without JAZ9 ([8]; 0.75 μM and 1 μM of JAZ9, NHR1A 1 μM pre-loaded with GTP 1 mM) [%] | Rate of GTP hydrolysis of AtNHR1A ([8]; in the presence of JAZ9)
1 | CC1=CC(=O)CC(C)(C)[C@@]1(O)/C=C/C(C)=C\C(=O)O [ABA, abscisic acid] | highly induced | only a slight increase | approximately threefold | remained open | closed stomata | twofold | reduced | decreased | – | – | –
2 | Jasmonate-Zim-Domain Protein 9 (JAZ9, At1g70700), full-length (other, Arabidopsis, UniProt Q8W4J8 1-267, looked up, GAL4 domain fusion in yeast two-hybrid, EYFP-half fusion in BiFC/FAST; the construct of the JAZ9 protein added to the GTPase assays is not described) MERDFLGLSDKQYLSNNVKHEVNDDAVEERGLSTKAAREWGKSKVFATSSFMPSSDFQEAKAFPGAYQWGSVSAANVFRRCQFGGAFQNATPLLLGGSVPLPTHPSLVPRVASSGSSPQLTIFYGGTISVFNDISPDKAQAIMLCAGNGLKGETGDSKPVREAERMYGKQIHNTAATSSSSATHTDNFSRCRDTPVAATNAMSMIESFNAAPRNMIPSVPQARKASLARFLEKRKERLMSAMPYKKMLLDLSTGESSGMNYSSTSPT | – | – | – | – | – | – | – | – | binds | 20 | significantly decreased
